In patent US20260001834A1, “COMPOUND OR SALT THEREOF, LIPID COMPOSITION, PHARMACEUTICAL COMPOSITION, AND DELIVERY CARRIER” (FUJIFILM Corporation, priority 2023, published 2026):

What was measured:
[1] = Particle diameter and polydispersity index (PdI) of mRNA-encapsulating lipid nanoparticles; type: physicochemical; details: EPO mRNA-encapsulating lipid nanoparticles, compound:DSPC:cholesterol:DMG-PEG2000=50:10:38.5:1.5; diluted with PBS
Experimental: (§1) The compounds shown in Table 9, 1,2-distearoyl-sn-glycero-3-phosphocholine (product name: COATSOME® MC-8080; NOF corporation) (hereinafter, DSPC), cholesterol (product name: Cholesterol HP; Nippon Seika Co., Ltd.), and 1,2-dimyristoyl-rac-glycero-3-(methylpolyoxyethylene 2000) (hereinafter, DMG-PEG2000) (product name: SUNBRIGHT® GM-020; NOF corporation) were dissolved in ethanol at a molar ratio (mol %) of compounds shown in Table 9:1,2-distearoyl-sn-glycero-3-phosphocholine:cholesterol:DMG-PEG2000=50:10:38.5:1.5 such that the total lipid concentration was 12.5 mmol/L, thereby obtaining an oil phase.
(§2) EPO mRNA (product name: CleanCap EPO mRNA (5moU); TriLink) was diluted with 50 mmol/L citrate buffer having a pH 4.0 such that the weight ratio of total lipid concentration to mRNA concentration is about 20:1, thereby obtaining a water phase. Then, the water phase and the oil phase were mixed together using NanoAssemblr (Precision NanoSystems) such that the volume ratio of water phase:oil phase was 3:1, and the mixed solution was 2-fold diluted with phosphate buffered physiological saline (PBS) or water, thereby obtaining a dispersion liquid of mRNA lipid nanoparticles. The dispersion liquid was dialyzed with 20 mM Tris buffer solution containing 8% sucrose using a dialysis cassette (Slide-A-Lyzer G2, MWCO: 10 kD, Thermo Fisher Scientific) to remove ethanol, thereby obtaining EPO mRNA-encapsulating lipid nanoparticles.
The particle diameter and the polydispersity index (PdI) of the mRNA-encapsulating lipid nanoparticles were obtained by measuring a dispersion liquid of lipid nanoparticles diluted with phosphate buffered physiological saline (PBS) using a particle size analyzer NanoSAQLA (Otsuka Electronics Co., Ltd.).

[2] = Encapsulation rate of mRNA in lipid nanoparticles; type: physicochemical; details: EPO mRNA-encapsulating lipid nanoparticles, compound:DSPC:cholesterol:DMG-PEG2000=50:10:38.5:1.5
Experimental: as §1, §2
<Evaluation of Encapsulation Rate of mRNA> (Quantification of Total mRNA Concentration)
EPO mRNA was diluted with MilliQ water to prepare a diluted sample in 2-fold dilution series from 100 μg/mL to 3.1 μg/mL, and a standard solution for calibration was prepared. 50 μL of the standard solution for calibration or the mRNA lipid nanoparticles was mixed with 450 μL of methanol to prepare a measurement solution.
The absorbance of each measurement solution at 260 nm and 330 nm was measured using a UV plate reader (Multiskan Go, Thermo Fisher Scientific), the absorbance at 330 nm was subtracted from the absorbance at 260 nm, and the result was used as the absorbance of each measurement solution. The total water phase nucleic acid concentration was calculated from the calibration curve using the absorbance of each sample measurement solution.
(Quantification of mRNA Concentration in Outer Water Phase)
The concentration of the outer water phase nucleic acid was quantified by a standard addition method using a QuanT-iT RiboGreen RNA Assay Kit (Thermo Fisher Scientific). First, a 20×TE buffer included in the above kit was diluted with water, thereby obtaining a 1×TE buffer. TE represents Tris/EDTA (ethylenediaminetetraacetic acid). EPO mRNA was diluted with a TE buffer such that the final concentration was 0 to 400 ng/mL to prepare a nucleic acid diluted series. 10 μL of mRNA lipid nanoparticles diluted 5-fold with TE buffer and 90 μL of a nucleic acid dilution series were mixed in a 96-well plate, 100 μL of a Ribogreen reagent diluted 200-fold with TE buffer was added to each well, and then fluorescence (excitation wavelength: 485 nm, fluorescence wavelength: 535 nm) was measured using a fluorescence plate reader (Infinite 200 Pro M nano+, TECAN). From the obtained results, the outer water phase nucleic acid concentration of each measurement solution was calculated according to the standard addition method.
(Calculation of Encapsulation Rate)
By using the quantification results of the total mRNA concentration and the mRNA concentration in the outer water phase that were obtained through the above steps, the mRNA encapsulation rate of the mRNA lipid nanoparticles was calculated according to the following Equation.

ICR mice = experiment: EPO expression level in mice after intravenous EPO mRNA lipid nanoparticles (human EPO ELISA of plasma); type: in vivo; details: mRNA dosage 0.1 mg/kg, plasma 6 hours after administration, Comparative Example set to 1
Experimental: as §1, §2
The dispersion liquid of mRNA lipid nanoparticles prepared in above <Preparation of EPO mRNA-encapsulating lipid nanoparticles> was intravenously administered to ICR mice at a mRNA dosage of 0.1 mg/kg. 6 hours after the administration, blood was collected from the caudal vena cava, thereby obtaining plasma. The human EPO […] was quantified by using the obtained blood plasma and Erythropoietin (EPO) Human Elisa Kit (Abcam.plc). The quantitative value is described as a relative amount of EPO protein in a case where Comparative Example is set to 1.

Row | Compound | Particle diameter (nm) [1] [nm] | PdI [1] | Nucleic acid encapsulation rate [2] [%] | Relative amount of EPO protein (with respect to Comparative Example 1) (ICR mice)
1 | CCCCCCCCOC(=O)CCCCCCCCC(CCCCCC)OC(=O)OCCN(CCOC(=O)C(CCCC)CCCCCC)CCN(CC)CC (stereo not drawn) [Compound 1, octyl 6-(2-((2-butyloctanoyl)oxy)ethyl)-3-ethyl-12-hexyl-10-oxo-9,11-dioxa-3,6-diazahenicosan-21-oate] | 112 | 0.03 | 89 | 
2 | CCCCCCOC(=O)CCCCCCCCC(CCCCCC)OC(=O)OCCN(CCOC(=O)C(CCCCCC)CCCCCC)CCN(CC)CC (stereo not drawn) [Compound 2, hexyl 3-ethyl-12-hexyl-6-(2-((2-hexyloctanoyl)oxy)ethyl)-10-oxo-9,11-dioxa-3,6-diazahenicosan-21-oate] | 103 | 0.03 | 90 | 1.61
3 | CCCCCCCCC(CCCCCCCC)C(=O)OCCN(CCOC(=O)OC(CCCCCC)CCCC(=O)OCCCCCCC)CCN(CC)CC (stereo not drawn) [Compound 4, heptyl 3-ethyl-12-hexyl-6-(2-((2-octyldecanoyl)oxy)ethyl)-10-oxo-9,11-dioxa-3,6-diazahexadecan-1 6-oate] | 85 | 0.12 | 90 | 3.09
4 | CCCCCCCOC(=O)CCCC(CCCCCC)OC(=O)OCCN(CCOC(=O)CC(CCCCCCC)CCCCCCC)CCN(CC)CC (stereo not drawn) [Compound 6, heptyl 3-ethyl-6-(2-((3-heptyldecanoyl)oxy)ethyl)-12-hexyl-10-oxo-9,11-dioxa-3,6-diazahexadecan-16-oate] | 98 | 0.11 | 77 | 4.91
5 | CCCCCCCCOC(=O)CCCC(CCCCCC)OC(=O)OCCN(CCOC(=O)C(CCCCCCC)CCCCCCC)CCN(CC)CC (stereo not drawn) [Compound 7, octyl 3-ethyl-6-(2-((2-heptylnonanoyl)oxy)ethyl)-12-hexyl-10-oxo-9,11-dioxa-3,6-diazahexadecan-16-oate] | 82 | 0.12 | 79 | 3.82
6 | CCCCCCCCOC(=O)CCCC(CCCCCC)OC(=O)OCCN(CCOC(=O)CC(CCCCCCC)CCCCCCC)CCN(CC)CC (stereo not drawn) [Compound 8, octyl 3-ethyl-6-(2-((3-heptyldecanoyl)oxy)ethyl)-12-hexyl-10-oxo-9,11-dioxa-3,6-diazahexadecan-16-oate] | 89 | 0.12 | 78 | 3.79
7 | CCCCCCCC(CCCCCCC)CC(=O)OCCN(CCOC(=O)OC(CCCCCC)CCCC(=O)OCC(CCCCC)CCCCC)CCN(CC)CC (stereo not drawn) [Compound 9, 2-pentylheptyl 3-ethyl-6-(2-((3-heptyldecanoyl)oxy)ethyl)-12-hexyl-10-oxo-9,11-dioxa-3,6-diazahexadecan-16-oate] | 77 | 0.13 | 85 | 2.30
8 | CCCCCCCC(CCCCCCC)CC(=O)OCCN(CCOC(=O)OC(CCCCCC)CCCC(=O)OCC(CCCCCC)CCCCCC)CCN(CC)CC (stereo not drawn) [Compound 10, 2-hexyloctyl 3-ethyl-6-(2-((3-heptyldecanoyl)oxy)ethyl)-12-hexyl-10-oxo-9,11-dioxa-3,6-diazahexadecan-16-oate] | 75 | 0.10 | 86 | 1.72
9 | CCCCCCCCCC(CCCCCCCCC)C(=O)OCCN(CCOC(=O)OC(CCCCCC)CCCC(=O)OCCCCCCC)CCN(CC)CC (stereo not drawn) [Compound 17, heptyl 3-ethyl-12-hexyl-6-(2-((2-nonylundecanoyl)oxy)ethyl)-10-oxo-9,11-dioxa-3,6-diazahexadecan-16-oate] | 79 | 0.15 | 95 | 1.91
10 | CCCCCCCCCCC(CCCCCCCCCC)C(=O)OCCN(CCOC(=O)OC(CCCCCC)CCCC(=O)OCCCCCCC)CCN(CC)CC (stereo not drawn) [Compound 18, heptyl 6-(2-((2-decyldodecanoyl)oxy)ethyl)-3-ethyl-12-hexyl-10-oxo-9,11-dioxa-3,6-diazahexadecan-16-oate] | 79 | 0.13 | 95 | 1.30
11 | CCCCCCCCC(CCCCCC)C(=O)OCCN(CCOC(=O)OC(CCCCCC)CCCC(=O)OCCCCCCC)CCN(CC)CC (stereo not drawn) [Compound 19, heptyl 3-ethyl-12-hexyl-6-(2-((2-hexyldecanoyl)oxy)ethyl)-10-oxo-9,11-dioxa-3,6-diazahexadecan-1 6-oate] | 91 | 0.09 | 94 | 4.31
12 | CCCCCCCOC(=O)CCCC(CCCCCC)OC(=O)OCCN(CCCN(CC)CC)CCOC(=O)C(CCCCCC)CCCCCC (stereo not drawn) [Compound 20, heptyl 3-ethyl-13-hexyl-7-(2-((2-hexyloctanoyl)oxy)ethyl)-11-oxo-10,12-dioxa-3,7-diazaheptadecan-17-oate] | 137 | 0.10 | 87 | 1.68
13 | CCCCCCCOC(=O)CCCCC(CCCCCC)OC(=O)OCCN(CCCN(CC)CC)CCOC(=O)C(CCCCCC)CCCCCC (stereo not drawn) [Compound 21, heptyl 3-ethyl-13-hexyl-7-(2-((2-hexyloctanoyl)oxy)ethyl)-11-oxo-10,12-dioxa-3,7-diazaoctadecan-1 8-oate] | 129 | 0.12 | 89 | 1.65
14 | CCCCCCCOC(=O)CCCCC(CCCCCC)OC(=O)OCCN(CCCN(CC)CC)CCOC(=O)C(CCCCCCC)CCCCCCC (stereo not drawn) [Compound 22, heptyl 3-ethyl-7-(2-((2-heptylnonanoyl)oxy)ethyl)-13-hexyl-11-oxo-10,12-dioxa-3,7-diazaoctadecan-18-oate] | 95 | 0.10 | 94 | 6.09
15 | CCCCCCCOC(=O)CCCCC(CCCCCC)OC(=O)OCCN(CCCN(CC)CC)CCOC(=O)CC(CCCCCCC)CCCCCCC (stereo not drawn) [Compound 25, heptyl 3-ethyl-7-(2-((3-heptyldecanoyl)oxy)ethyl)-13-hexyl-11-oxo-10,12-dioxa-3,7-diazaoctadecan-18-oate] | 102 | 0.16 | 94 | 4.77
16 | heptyl 3-ethyl-12-hexyl-6-(2-((2-hexyloctanoyl)oxy)ethyl)-10-oxo-9,11-dioxa-3,6-diazahexadecan-1 6-oate [Compound 5] | 118 | 0.07 | 79 | 2.28
